# Assay results: PubChem BioAssay (NCI)
#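 Method: 48-hour compound exposure of cells in 96-well plates, five concentrations, linear interpolation of endpoints. GI50 = concentration required for 50% inhibition of growth. TGI denotes the concentration required for complete inhibition of growth.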
# Columns and labels:
# Assay in all cases: growth of human tumour cells (NCI), 48 h
# [1] = tested on: SF-295 CNS
# [2] = tested on: ACHN renal
# [3] = tested on: OVCAR-3 ovarian
# [4] = tested on: HOP-92 NSCLC
# [5] = tested on: 786-0 renal
# [6] = tested on: A549 NSCLC
# [7] = tested on: NCI/ADR-RES ovarian
# [8] = tested on: SNB-75 CNS
# [9] = tested on: UACC-257 melanoma
# [10] = tested on: SK-OV-3 ovarian
# [11] = tested on: SW-620 colon
# [12] = tested on: OVCAR-5 ovarian
# [13] = tested on: HCT-116 colon
# [14] = tested on: IGROV1 ovarian
# [15] = tested on: MALME-3M melanoma
# [16] = tested on: RXF 393 renal
# [17] = tested on: PC-3 prostate
# [18] = tested on: SNB-19 CNS
# [19] = tested on: A498 renal
# [20] = tested on: TK-10 renal
# [21] = tested on: NCI-H460 lung
# [22] = tested on: NCI-H522 lung
# [23] = tested on: K-562 leukemia
# [24] = tested on: HL-60(TB) leukemia
# [25] = tested on: SK-MEL-5 melanoma
# [26] = tested on: COLO 205 colon
# [27] = tested on: HCC-2998 colon
# [28] = tested on: NCI-H226 lung
# [29] = tested on: MCF7 breast
# [30] = tested on: HT29 colon
# [31] = tested on: MOLT-4 leukemia
# [32] = tested on: SN12C renal
# [33] = tested on: SF-539 CNS
# [34] = tested on: SK-MEL-28 melanoma
# [35] = tested on: MDA-MB-435
# [36] = tested on: DU-145 prostate
# [37] = tested on: U251 CNS
# [38] = tested on: UO-31 renal
# [39] = tested on: SF-268 CNS
# [40] = tested on: HS 578T breast
# [41] = tested on: HCT-15 colon
# [42] = tested on: NCI-H23 lung
# [43] = tested on: HOP-62 NSCLC
# [44] = tested on: T-47D breast
# [45] = tested on: RPMI-8226 leukemia
# [46] = tested on: MDA-MB-231 breast
# [47] = tested on: SR leukemia
# [48] = tested on: OVCAR-4 ovarian
# [49] = tested on: M14 melanoma
# [50] = tested on: CCRF-CEM leukemia
# [51] = tested on: OVCAR-8 ovarian
# [52] = tested on: LOX IMVI melanoma
# [53] = tested on: KM12 colon
# [54] = tested on: BT-549 breast
# [55] = tested on: UACC-62 melanoma
# [56] = tested on: CAKI-1 renal
# [57] = tested on: SK-MEL-2 melanoma
smiles,measurement,setting,value
C=C[C@]1(C)C=C2C(=O)[C@@]3(O)OC(=O)[C@@]4(CCCC(C)(C)[C@H]34)[C@@]2(O)CC1,GI50,[1],4430 nM
same,TGI,[1],17800 nM
same,GI50,[2],1120 nM
same,TGI,[2],2350 nM
same,GI50,[3],1080 nM
same,TGI,[3],2520 nM
same,GI50,[4],282 nM
same,TGI,[4],1620 nM
same,GI50,[5],1680 nM
same,TGI,[5],3130 nM
same,GI50,[6],2380 nM
same,TGI,[6],7260 nM
same,GI50,[7],2890 nM
same,TGI,[7],> 100000 nM
same,GI50,[8],1090 nM
same,TGI,[8],2450 nM
same,GI50,[9],1330 nM
same,TGI,[9],2910 nM
same,GI50,[10],4650 nM
same,TGI,[10],17000 nM
same,GI50,[11],955 nM
same,TGI,[11],3360 nM
same,GI50,[12],1970 nM
same,TGI,[12],3850 nM
same,GI50,[13],1300 nM
same,TGI,[13],2860 nM
same,GI50,[14],2160 nM
same,TGI,[14],4580 nM
same,GI50,[15],926 nM
same,TGI,[15],2800 nM
same,GI50,[16],608 nM
same,TGI,[16],1910 nM
same,GI50,[17],1450 nM
same,TGI,[17],5080 nM
same,GI50,[18],6330 nM
same,TGI,[18],19700 nM
same,GI50,[19],1510 nM
same,TGI,[19],3600 nM
same,GI50,[20],1490 nM
same,TGI,[20],2920 nM
same,GI50,[21],3390 nM
same,TGI,[21],13900 nM
same,GI50,[22],570 nM
same,TGI,[22],2030 nM
same,GI50,[23],2130 nM
same,TGI,[23],10100 nM
same,GI50,[24],1220 nM
same,TGI,[24],4430 nM
same,GI50,[25],1580 nM
same,TGI,[25],2970 nM
same,GI50,[26],1610 nM
same,TGI,[26],2980 nM
same,GI50,[27],2140 nM
same,TGI,[27],3810 nM
same,GI50,[28],5140 nM
same,TGI,[28],26100 nM
same,GI50,[29],1420 nM
same,TGI,[29],6960 nM
same,GI50,[30],2120 nM
same,TGI,[30],6860 nM
same,GI50,[31],1740 nM
same,TGI,[31],7530 nM
same,GI50,[32],1960 nM
same,TGI,[32],4820 nM
same,GI50,[33],1370 nM
same,TGI,[33],2760 nM
same,GI50,[34],1670 nM
same,TGI,[34],3220 nM
same,GI50,[35],1760 nM
same,TGI,[35],4420 nM
same,GI50,[36],1670 nM
same,TGI,[36],3690 nM
same,GI50,[37],2210 nM
same,TGI,[37],5680 nM
same,GI50,[38],1310 nM
same,TGI,[38],2660 nM
same,GI50,[39],1890 nM
same,TGI,[39],4690 nM
same,GI50,[40],2770 nM
same,TGI,[40],> 100000 nM
same,GI50,[41],790 nM
same,TGI,[41],3050 nM
same,GI50,[42],2140 nM
same,TGI,[42],5290 nM
same,GI50,[43],4170 nM
same,TGI,[43],15700 nM
same,GI50,[44],1090 nM
same,TGI,[44],3490 nM
same,GI50,[45],1130 nM
same,TGI,[45],8170 nM
same,GI50,[46],1460 nM
same,TGI,[46],3430 nM
same,GI50,[47],1030 nM
same,TGI,[47],8500 nM
same,GI50,[48],1050 nM
same,TGI,[48],2870 nM
same,GI50,[49],1790 nM
same,TGI,[49],3820 nM
same,GI50,[50],383 nM
same,TGI,[50],10700 nM
same,GI50,[51],1690 nM
same,TGI,[51],5630 nM
same,GI50,[52],1720 nM
same,TGI,[52],3240 nM
same,GI50,[53],3420 nM
same,TGI,[53],13800 nM
same,GI50,[54],1070 nM
same,TGI,[54],2480 nM
same,GI50,[55],1370 nM
same,TGI,[55],2920 nM
same,GI50,[56],1330 nM
same,TGI,[56],3020 nM
same,GI50,[57],2270 nM
same,TGI,[57],5020 nM
